Results taken from patent publication US20250334558A1, “TOTAL HYDROGEN SULFIDE QUANTIFICATION” (The Cleveland Clinic Foundation, priority 2022, published 2025).
Residues, ends and D or L forms follow the SMILES beside them.

What was measured:
[1] = Long term (one year) stability study of H2S and thiols in human plasma samples; conditions: n = 3
Protocol: (§1) Long-term stability of H2S and thiols in plasma samples was determined by “accelerated” stability. Samples were incubated in gas tight vials at 60° C. Each day, for five days (and after 1 year), an aliquot was cooled on ice, derivatized, and then analyzed by mass spectrometry. Stability was reported as the mean of the daily stability assay calculated across the five days. The long-term stability was calculated using the following formula: % Stability=(Ct/C0)×100; where C0 is the initial concentration of thiols and Ct is the concentration after each day of incubation. To determine whether the analyte was stable following derivatization, samples from 3 QC levels were kept at auto-sampler temperature and tested for five days. Stability was reported as the mean of the daily stability results for five days using the following formula: % Stability=(Ct/C0)×100; where C0 is the initial concentration of thiols and Ct is the concentration after each day of incubation.
Stability The stability of H2S and thiols in samples was determined through an accelerated stability study of pooled serum samples (Quality Control (QC) samples at 3 concentration levels) analyzed in triplicates at 60° C. for 5 days and compared with fresh matrix that was immediately processed. […] Extract stability was also tested by reanalyzing QC extracts after ≥3 days at 10° C. (auto-sampler temperature) and quantifying against a freshly analyzed sample.

[2] = after 5 freeze-thaw cycles, serum
Protocol: Stability of samples containing H2S and thiols For stability analysis a fresh serum sample was divided into 5 equal aliquots and frozen at −80° C. The aliquots were thawed and analyzed 24 hours later. This process was repeated five times. Percent recovery (stability) was calculated with the following formula: % Stability=100×Ct/C0; where C0 is the initial concentration (μM) of total H2S/thiols in the fresh serum sample and Ct is the concentration after each freeze-thaw cycle. The concentration mean from the 5 freeze-thaw cycles was calculated along with the standard deviation for each compound.

[3] = pooled serum QC samples, 60° C., 5 days, vs fresh matrix
Protocol: as §1
Stability The stability of H2S and thiols in samples was determined through an accelerated stability study of pooled serum samples (Quality Control (QC) samples at 3 concentration levels) analyzed in triplicates at 60° C. for 5 days and compared with fresh matrix that was immediately processed. […] (auto-sampler temperature) and quantifying against a freshly analyzed sample.

[4] = Storage stability of synthesized isotope labelled internal standard [^34S]Na2S and stock master solutions at −80° C.; conditions: Storage at −80° C.
Protocol: The internal standard stock solution was prepared by weighing anhydrous [^34S]Na2S (in glovebox under nitrogen atmosphere) and dissolving it in ammonium bicarbonate buffer (pH 10).
IS working solutions were diluted 10-fold immediately before use.
The recovery of IS for H2S and other monitored thiols was examined in human plasma by comparing analyte peak areas in pooled human serum versus vehicle.

Structure (SMILES)	Stability (%) = 100 × Ct/C0 ([1]; QC1, one year storage) [%]	Stability (%) = 100 × Ct/C0 ([1]; QC2, one year storage) [%]	Stability (%) = 100 × Ct/C0 ([1]; QC3, one year storage) [%]	further results
N[C@@H](CS)C(=O)O [Cysteine]	96.9 ± 6.0	96.6 ± 3.2	100.5 ± 1.1	
N[C@@H](CS)C(=O)NCC(=O)O [Cysteinylglycine]	91.9 ± 6.5	99.0 ± 3.5	94.4 ± 4.9	
N[C@@H](CCC(=O)O)C(=O)N[C@@H](CS)C(=O)O [Glutamylcysteine] (H-Glu-Cys-OH)	95.6 ± 1.3	96.2 ± 3.5	94.3 ± 6.9	
N[C@@H](CCC(=O)N[C@@H](CS)C(=O)NCC(=O)O)C(=O)O [Glutathione]	82.1 ± 4.9	95.8 ± 5.5	99.0 ± 6.1	
S [H2S, Hydrogen sulfide]	98.4 ±2.2	97.4 ± 4.3	99.0 ± 3.9	Freeze-thaw stability [2]: 98.6%; Sample stability (accelerated) [3]: 94.4%
N[C@@H](CCS)C(=O)O [Homocysteine]	90.3 ± 5.6	101.3 ± 5.3	108.2 ± 6.9	
[Na+].[Na+].[S-2] [[^34S]Na2S, ^34S isotope-labeled sodium sulfide]				% of peak area, storage stability ([4]; 1 Week): 100.0 ± 9.7%; % of peak area, storage stability ([4]; 2 Week): 101.3 ± 8.5%; % of peak area, storage stability ([4]; 3 Week): 97.3 ± 14.3%; % of peak area, storage stability ([4]; 4 Week): 101.1 ± 8.1%; % of peak area, storage stability ([4]; 5 Week): 96.1 ± 4.5%; % of peak area, storage stability ([4]; 6 Week): 101.1 ± 8.1%; % of peak area, storage stability ([4]; 7 Week): 103.7 ± 12.3%; % of peak area, storage stability ([4]; 8 Week): 98.8 ± 19.9%
